Measured values as given in paper PMC11784013, “Potassium molybdate blocks APN-dependent coronavirus entry by degrading receptor via PIK3C3-mediated autophagy” (Journal of Virology, 2024).

Columns and labels:
[1] = system: PIK3C3-BECN1-ATG14 complex; assay: Co-IP and confocal analysis of PtdIns3K complex assembly in ST cells; type: cell-based, porcine; details: 36 h
Method: Fig 8 PM promotes PIK3C3-BECN1-ATG14 complex assembly by enhancing PIK3C3 Ser249 phosphorylation. (A) ST cells were transfected with pCMV-Myc-PIK3C3 and pCDNA3.1-Flag-BECN1 for 12 h and then treated with PM (10 mM) for 36 h. The Co-IP was carried out by Flag or Myc Ab, followed by western blot analysis. (B) ST cells were transfected with pCDNA3.1-Flag-BECN 1 and pCDNA3.4-His-ATG14 for 12 h and treated with PM (10 mM) for 36 h. The Co-IP was performed with Flag or […] Ab, followed by western blot detection. (C–E) ST cells were transfected with pCMV-Myc-PIK3C3, pCDNA3.1-Flag-BECN1, and pCDNA3.4-His-ATG14 for 12 h, and PM (10 mM) was added to the cells for 36 h. Then Co-IP was performed with a Myc, Flag, and His Ab individually, and all IPs, input, and phosphorylation of PIK3C3 (Ser249), BECN1 (Ser14), and ATG14 (Ser29) were detected by western blot. (F) ST cells were transfected with pCMV-Myc-PIK3C3, pCDNA3.1-Flag-BECN1, and pCDNA3.4-His-ATG14 for 12 h, and PM (10 mM) was added to the cells for 36 h, which detected by IFA, scale bar: 20 µm. (G) Quantification of PIK3C3-BECN1-ATG14 complex (merged signal) from F using Image J software. (H) ST cells were transfected with pCMV-Myc-PIK3C3 or pCMV-Myc-PIK3C3 mutant, pCDNA3.1-Flag-BECN1 and pCDNA3.4-His-ATG14 for 12 h and then treated with PM (10 mM) for 36 h. Then Co-IP was performed with a Myc, Flag, and His Ab individually, and all IPs, input, and phosphorylation of PIK3C3 (Ser249), BECN1 (Ser14), and ATG14 (Ser29) were detected by western blot. Results are presented as mean ± SD of data from three independent experiments. ***, P ≤ 0.001.
Cotransfected cells were washed with cold PBS twice and lysed with NP40 lysis buffer (Beyotime, China, P0013F) supplemented with 1 mM PMSF (Beyotime, China, ST506) and phosphatase inhibitors (Beyotime, China, P1096). […] Immunoprecipitated proteins were detected by western blotting. […]

intestinal organoids = assay: Cell Counting Kit 8 cytotoxicity assay in intestinal organoids; type: cell-based, porcine; details: PM at concentrations less than 30 mM, 24 h
Method: Fig 2 PM restricts TGEV and PRCV infection in porcine intestinal organoids. (A) Intestinal organoids cultured in 96-well plate were incubated with different concentrations of PM for 24 h, which was tested by Cell Counting Kit 8. (B and C) The intestinal organoids monolayer was treated with indicated PM and infected with TGEV Miller (0.1 MOI) for 24 h, which was measured by IFA (B), scale bar: 50 µm, RT-qPCR, TCID50, and western blot (C). (D) Apical-out intestinal organoids were treated with indicated PM and infected TGEV Miller (1 MOI) for 48 h, which was determined by RT-qPCR, TCID50, and western blot. (E and F) The intestinal organoids monolayer was treated with different concentrations of PM and infected with PRCV for 24 h, which was determined by IFA (E), scale bar: 50 µm, RT-qPCR, TCID50, and western blot (F). (G) Apical-out intestinal organoids were treated with indicated PM and infected PRCV (1 MOI) for 48 h, which was detected by RT-qPCR, TCID50, and western blot. Results are presented as mean ± SD of data from three independent experiments. **, P ≤ 0.01; ***, P ≤ 0.001.
ST cells or intestinal organoids cultured in a 96-well plate were incubated with different concentrations of PM (0, 0.1, 0.25, 0.5, 1, 2.5, 5, 10, 20, and 30 mM) for 24 h. […] The absorbance of each well was then measured at 450 nm using a microplate reader to determine cell viability.

[K+].[K+].[O]=[Mo](=[O])([O-])[O-] [PM, potassium molybdate]
PIK3C3 Ser249 phosphorylation ([1]; ST cells co-transfected with Myc-PIK3C3, Flag-BECN1, His-ATG14, PM 10 mM): upregulation of PIK3C3 Ser249 phosphorylation
colocalization of Myc-PIK3C3, Flag-BECN1 and His-ATG14 (confocal microscopy) ([1]; ST cells, PM 10 mM): enhanced the colocalization
interaction between Myc-PIK3C3 and Flag-BECN1 (Co-IP) ([1]; ST cells, PM 10 mM): increased after PM treatment
cytotoxicity (Cell Counting Kit 8) (intestinal organoids): did not cause significant cytotoxicity
